Calls of active or inactive are those of the source.
What was measured:
Assay type in all cases: functional, organism-based
Escherichia coli = experiment: Antimicrobial activity against Escherichia coli
Serratia marcescens = experiment: Antimicrobial activity against Serratia marcescens
Saccharomyces cerevisiae = experiment: Antimicrobial activity against Saccharomyces cerevisiae

Measured: inhibition

CCCC/C=C/C1=C2NC(=N)N[C@H]3CC[C@@H](C[C@@H]1C)[C@@H]23
active: all assays above
